Measurements reported in article PMC11480511 (Scientific Reports, 2024).
Converted amounts (≈) assume the structure as drawn. Where two headings read alike, the source gives them in different places.

Key:
[1] = test system: OVCAR-4; test: NCI single-dose growth inhibition screen; assay type: cell-based; details: Homo sapiens; Ovarian Cancer OVCAR-4; single dose 10^−5 M
[2] = test system: IGROV1; test: NCI single-dose growth inhibition screen; assay type: cell-based; details: Homo sapiens, IGROV-1; Ovarian Cancer IGROV1; single dose 10^−5 M
[3] = test system: TK-10; test: NCI single-dose growth inhibition screen; assay type: cell-based; details: Homo sapiens; Renal Cancer TK-10; single dose 10^−5 M
[4] = test system: MCF7; test: NCI single-dose growth inhibition screen; assay type: cell-based, human; details: Homo sapiens, MCF7, Breast Cancer MCF7; single dose 10^−5 M
[5] = test system: NCI-H322M; test: NCI single-dose growth inhibition screen; assay type: cell-based; details: Homo sapiens; Non-Small Cell Lung Cancer NCI-H322M; single dose 10^−5 M
[6] = test system: S. aureus ATCC 6538; test: Antibacterial screening, agar cup diffusion method; assay type: cell-based; details: Staphylococcus aureus, ATCC6538; Gram + ve strain; read-out: Minimum inhibitory concentrations (MIC, µM) S. aureus ATCC 6538
[7] = test system: MOLT-4; test: NCI single-dose growth inhibition screen; assay type: cell-based; details: Homo sapiens; Leukemia MOLT-4; single dose 10^−5 M
[8] = test system: PC-3; test: NCI single-dose growth inhibition screen; assay type: cell-based; details: Homo sapiens; Prostate Cancer PC-3; single dose 10^−5 M
[9] = test system: SK-MEL-5; test: NCI single-dose growth inhibition screen; assay type: cell-based, human; details: Homo sapiens, SK-MEL-5, Melanoma SK-MEL-5; single dose 10^−5 M
[10] = test system: SR; test: NCI single-dose growth inhibition screen; assay type: cell-based; details: Homo sapiens; Leukemia SR; single dose 10^−5 M
[11] = test system: EKVX; test: NCI single-dose growth inhibition screen; assay type: cell-based; details: Homo sapiens; Non-Small Cell Lung Cancer EKVX; single dose 10^−5 M
[12] = test system: T-47D; test: NCI single-dose growth inhibition screen; assay type: cell-based; details: Homo sapiens, T47D; Breast Cancer T-47D; single dose 10^−5 M
[13] = test system: SNB-19; test: NCI single-dose growth inhibition screen; assay type: cell-based; details: Homo sapiens; CNS Cancer SNB-19; single dose 10^−5 M
[14] = test system: MDA-MB231; test: NCI single-dose growth inhibition screen; assay type: cell-based; details: Homo sapiens, MDA-MB-231; Breast Cancer MDA-MB231; single dose 10^−5 M
[15] = test system: CCRF-CEM; test: NCI single-dose growth inhibition screen; assay type: cell-based; details: Homo sapiens; Leukemia CCRF-CEM; single dose 10^−5 M
[16] = test system: MALME-3 M; test: NCI single-dose growth inhibition screen; assay type: cell-based; details: Homo sapiens; Melanoma MALME-3 M; single dose 10^−5 M
[17] = test system: HOP-62; test: NCI single-dose growth inhibition screen; assay type: cell-based; details: Homo sapiens; Non-Small Cell Lung Cancer HOP-62; single dose 10^−5 M
[18] = test system: NCI-H460; test: NCI single-dose growth inhibition screen; assay type: cell-based; details: Homo sapiens; Non-Small Cell Lung Cancer NCI-H460; single dose 10^−5 M
[19] = test system: NCI-H23; test: NCI single-dose growth inhibition screen; assay type: cell-based; details: Homo sapiens; Non-Small Cell Lung Cancer NCI-H23; single dose 10^−5 M
[20] = test system: UO-31; test: NCI single-dose growth inhibition screen; assay type: cell-based, human; details: single dose 10^−5 M; for inhibition at 10 µM: Homo sapiens, UO-31, Renal Cancer UO-31; for Growth Inhibition (%): Renal Cancer UO-31
[21] = test system: E. coli ATCC 25,922; test: Antibacterial screening, agar cup diffusion method; assay type: cell-based; details: read-out: Minimum inhibitory concentrations (MIC, µM) E. coli ATCC 25,922
[22] = test system: UACC-257; test: NCI single-dose growth inhibition screen; assay type: cell-based; details: Homo sapiens; Melanoma UACC-257; single dose 10^−5 M
[23] = test system: BT-549; test: NCI single-dose growth inhibition screen; assay type: cell-based; details: Homo sapiens; Breast Cancer BT-549; single dose 10^−5 M
[24] = test system: HL-60(TB); test: NCI single-dose growth inhibition screen; assay type: cell-based; details: Homo sapiens; Leukemia HL-60(TB); single dose 10^−5 M
[25] = test system: SK-MEL-28; test: NCI single-dose growth inhibition screen; assay type: cell-based; details: Homo sapiens; Melanoma SK-MEL-28; single dose 10^−5 M
[26] = test system: SK-MEL-2; test: NCI single-dose growth inhibition screen; assay type: cell-based; details: Homo sapiens; Melanoma SK-MEL-2; single dose 10^−5 M
[27] = test system: A549/ATCC; test: NCI single-dose growth inhibition screen; assay type: cell-based; details: Homo sapiens; Non-Small Cell Lung Cancer A549/ATCC; single dose 10^−5 M
[28] = test system: A498; test: NCI single-dose growth inhibition screen; assay type: cell-based, human; details: single dose 10^−5 M; for inhibition at 10 µM: Homo sapiens, A498, Renal Cancer A498
[29] = test system: HOP-92; test: NCI single-dose growth inhibition screen; assay type: cell-based; details: Homo sapiens; Non-Small Cell Lung Cancer HOP-92; single dose 10^−5 M
[30] = test system: P. aeruginosa ATCC 27,853; test: Antibacterial screening, agar cup diffusion method; assay type: cell-based; details: Pseudomonas aeruginosa, ATCC27; Gram –ve strain; read-out: Minimum inhibitory concentrations (MIC, µM) P. aeruginosa ATCC 27,853
Experimental: Anti-bacterial activity of the recently synthesized compounds 3a-k was evaluated at AUMC (Assiut University Mycological Centre), Assiut, Egypt. Assays were done against Gram-negative strains of K. pneumoniae (ATCC 100310, E. coli (ATCC 25922), Pseudomonas aeruginosa (ATCC 27853) and the Gram-positive S. aureus (ATCC 6538) strain utilizing standard agar cup diffusion method. The isolates from the four bacterial species examined were kept in TSB (Trypticase Soya Broth, Becton and Dickinson) with 10% glycerol at -70 °C and then subcultured on TSA (Trypticase Soya Agar, Becton and Dickinson) and TSB for 24 h at 37 °C former to inoculation. Bacterial isolates were then plated on sterile petri plates with 1 × 10^8 CFU/mL (0.5 McFarland turbidity) and 20 mL of Mueller Hinton Agar media (Oxoid) was then loaded. To ensure that the microorganisms were evenly dispersed, the plates were gently rotated before being left to harden on a level surface. Four equally spaced spherical-shaped wells (10 mm diameter) were painstakingly drilled using a sterilized cork bore after media solidification. All tested compounds under test underwent two-fold serial dilutions in a sequential manner. Three replications of 100 µL of each concentration were added to a well using a micropipette. Plates were then incubated for 24-hour at 37 °C. The average of the inhibition zones was then calculated. To determine the MICs, the natural logarithm of each diluted test substance’s concentration was plotted against the average area of the related inhibition zone. Following that, a regression line was created and the intercept on the ‘ln concentration” axis was determined, and the antilogarithm was calculated to indicate the MIC value[34],[63].

[31] = test system: HS 578T; test: NCI single-dose growth inhibition screen; assay type: cell-based; details: Homo sapiens; Breast Cancer HS 578T; single dose 10^−5 M
[32] = test system: SF-539; test: NCI single-dose growth inhibition screen; assay type: cell-based; details: Homo sapiens; CNS Cancer SF-539; single dose 10^−5 M
[33] = test system: SF-268; test: NCI single-dose growth inhibition screen; assay type: cell-based; details: Homo sapiens; CNS Cancer SF-268; single dose 10^−5 M
[34] = Escherichia coli, ATCC25, Gram –ve strain

SMILES	inhibition at 10 µM [1]	inhibition at 10 µM [2]	inhibition at 10 µM [3]	inhibition at 10 µM [4]	inhibition at 10 µM [5]	MIC [6]	inhibition at 10 µM [7]	inhibition at 10 µM [8]	inhibition at 10 µM [9]	inhibition at 10 µM [10]	inhibition at 10 µM [11]	inhibition at 10 µM [12]	inhibition at 10 µM [13]	inhibition at 10 µM [14]	inhibition at 10 µM [16]	inhibition at 10 µM [17]	inhibition at 10 µM [18]	inhibition at 10 µM [19]	inhibition at 10 µM [20]	MIC [21, 34]	other results
COc1ccc(/C=C2\SC(=O)N(CCCC(=O)N3CCN(c4cc5c(cc4F)c(=O)c(C(=O)O)cn5C4CC4)CC3)C2=O)cc1OC [3f]	< 0%	< 0%	8.7%	3.9%	4.2%	> 20 µM	7.2%	< 0%	1.9%	19.5%	10.6%	0.9%	0.9%	0.1%	5.9%	< 0%	< 0%	< 0%	14.5%	1.94 to 2.6 µM (≈ 1.29 to 1.73 µg/mL)	inhibition at 10 µM [15]: < 0%; MIC ([21]; Gram –ve strain): 2.23 µM (≈ 1.48 µg/mL); inhibition at 10 µM [22]: 12.3%; inhibition at 10 µM [23]: 3.4%; inhibition at 10 µM [24]: 1.9%; inhibition at 10 µM [25]: < 0%; inhibition at 10 µM [26]: 2.8%; inhibition at 10 µM [27]: 1.3%; inhibition at 10 µM [28]: 15.5%; inhibition at 10 µM [29]: 0.8%; MIC [30]: > 20 µM; inhibition at 10 µM [31]: 1.2%; inhibition at 10 µM [32]: 4.4%; inhibition at 10 µM [33]: < 0%
O=C(O)c1cn(C2CC2)c2cc(N3CCN(C(=O)CCCN4C(=O)S/C(=C\c5ccc(Cl)cc5)C4=O)CC3)c(F)cc2c1=O [3 h]	5.1%	< 0%	1.1%	< 0%	11.8%	> 20 µM	< 0%	< 0%	1.1%	10.7%	2.1%	2%	0%	13.7%	10.9%	2.9%	0%	5.3%	28%	0.04 µM (≈ 0.0256 µg/mL)	inhibition at 10 µM [15]: < 0%; inhibition at 10 µM [22]: 5.1%; inhibition at 10 µM [23]: 3.8%; inhibition at 10 µM [24]: < 0%; inhibition at 10 µM [25]: < 0%; inhibition at 10 µM [26]: 7.3%; inhibition at 10 µM [27]: 3.4%; inhibition at 10 µM [28]: 7.7%; inhibition at 10 µM [29]: 9.7%; MIC [30]: > 20 µM; inhibition at 10 µM [31]: < 0%; inhibition at 10 µM [32]: 1.2%; inhibition at 10 µM [33]: 2.3%
O=C(O)c1cn(C2CC2)c2cc(N3CCN(C(=O)CCCN4C(=O)CSC4=O)CC3)c(F)cc2c1=O [3 L, 1-Cyclopropyl-7-(4-(4-(2,4-dioxothiazolidin-3-yl)butanoyl)piperazin-1-yl)-6-fluoro-4-oxo-1,4-dihydroquinoline-3-carboxylic acid]	19.2%	15.3%	28.7%	< 0%	0%	> 20 µM	< 0%	2.4%	< 0%	< 0%	23.8%	< 0%	0%	10.1%	< 0%	16.8%	0%	5.7%	42%	> 20 µM	Growth Inhibition (%) [20]: 41.0%; inhibition at 10 µM [22]: < 0%; inhibition at 10 µM [23]: 4.8%; inhibition at 10 µM [24]: < 0%; inhibition at 10 µM [25]: 49.5%; inhibition at 10 µM [26]: < 0%; inhibition at 10 µM [27]: 6.7%; inhibition at 10 µM [28]: 45.1%; Growth Inhibition (%) ([28]; Renal Cancer A498): 45.1%; inhibition at 10 µM [29]: 0.7%; MIC [30]: > 20 µM; inhibition at 10 µM [32]: 3.3%; inhibition at 10 µM [33]: 15.1%
O=C(O)c1cn(C2CC2)c2cc(N3CCN(C(=O)CCCN4C(=O)S/C(=C\c5ccc([N+](=O)[O-])cc5)C4=O)CC3)c(F)cc2c1=O [3k]	13.7%	15.9%	33.5%	< 0%	< 0%	> 20 µM	< 0%	< 0%	0.8%	9.7%	24.4%	< 0%	< 0%	11.2%	< 0%	19.7%	< 0%	6.2%	42%	0.25 µM (≈ 0.162 µg/mL)	Growth Inhibition (%) [20]: 41.1%; inhibition at 10 µM [22]: < 0%; inhibition at 10 µM [23]: 1%; inhibition at 10 µM [24]: < 0%; inhibition at 10 µM [25]: < 0%; inhibition at 10 µM [26]: < 0%; inhibition at 10 µM [27]: 5.5%; inhibition at 10 µM [29]: 0.2%; MIC [30]: > 20 µM; inhibition at 10 µM [32]: 6%; inhibition at 10 µM [33]: 13.3%
Cc1ccc(/C=C2\SC(=O)N(CCCC(=O)N3CCN(c4cc5c(cc4F)c(=O)c(C(=O)O)cn5C4CC4)CC3)C2=O)cc1 [3c]	< 0%	3.2%	< 0%	< 0%	< 0%	> 20 µM	< 0%	1.1%	3.8%	< 0%	2.4%	< 0%	< 0%	< 0%	< 0%	< 0%	< 0%	1.8%	16.5%	0.48 µM (≈ 0.297 µg/mL)	inhibition at 10 µM [15]: 2.9%; inhibition at 10 µM [22]: < 0%; inhibition at 10 µM [24]: 6.2%; inhibition at 10 µM [25]: < 0%; inhibition at 10 µM [26]: < 0%; inhibition at 10 µM [27]: < 0%; inhibition at 10 µM [28]: 5.3%; inhibition at 10 µM [29]: < 0%; MIC [30]: > 20 µM; inhibition at 10 µM [31]: < 0%; inhibition at 10 µM [32]: 0.9%; inhibition at 10 µM [33]: 3.7%
